Data set [1] deals with Diabrotica balteata (corn root worm). Put plainly: Example B4: activity against Diabrotica balteata, larvae L2 on maize sprouts, feeding/contact, preventative. The data set is classed as in vivo. Conditions: 120 h, 5 days incubation, read-out: activity (larval mortality, growth regulation). The method, then:
Activity Against Diabrotica Balteata (Corn Root Worm)
(Larvae L2 on Maize Sprouts, Feeding/Contact, Preventative)
Maize sprouts, placed on an agar layer in 24 well micro titer plates were treated with test solutions by spraying. After drying, the MTPs were infested with L2 larvae (6-10 per well). After an incubation period of 5 days, samples were checked for larval mortality and growth regulation.

Data set [2] deals with Myzus persicae (green peach aphid). Put plainly: Example B5: activity against Myzus persicae, feeding/residual contact, preventive, mixed population (sunflower leaf discs). Type of data set: in vivo. Conditions: foliar, 144 h, mixed ages, 6 DAT, read-out: activity (mortality, special effects). The method, then: (§1) Activity Against Myzus persicae (Green Peach Aphid)
(Feeding/Residual Contact Activity, Preventive), Mixed Population
Sunflower leaf discs were placed on agar in a 24-well microtiter plate and sprayed with test solutions. After drying, the leaf discs were infested with an aphid population of mixed ages. After an incubation period of 6 DAT, samples were checked for mortality and special effects (e.g. phytotoxicity).

Data set [3] has as its system Aedes aegypti (yellow fever mosquito). Put plainly: Example B9: activity against Aedes aegypti, adult females on treated plates. The conditions noted are these: 200 ppm in ethanol; after 48 hours. The data set is classed as in vivo. The method, then: Activity Against Aedes aegypti (Yellow Fever Mosquito)
Test solutions, at an application rate of 200 ppm in ethanol, were applied to 12-well tissue culture plates. Once the deposits were dry, five, two to five days old adult female Aedes aegypti were added to each well, and sustained with a 10% sucrose solution in a cotton wool plug. Assessment of knockdown was made one hour after introduction, and mortality was assessed at 24 and 48 hours after introduction.

The test system of data set [4] is Myzus persicae (green peach aphid). Put plainly: Example B6: activity against Myzus persicae, feeding activity sachet test, mixed population. Type of data set: in vivo. Conditions: 120 h, 5 days after infestation.
From the text: as §1
(Feeding Activity Sachet Test), Mixed Population
Test compounds were applied by pipette into 24 well plates and mixed with Sucrose solution. The plates were closed with a stretched Parafilm. A plastic stencil with 24 holes is placed onto the plate and infested pea seedlings were placed directly on the Parafilm. The infested plate is closed with a gel blotting paper and another plastic stencil and then turned upside down. 5 days after infestation the samples were checked on mortality. Application rate: 12.5 ppm.

Data set [5] has as its system Plutella xylostella (diamond back moth). Put plainly: Example B3: activity against Plutella xylostella, larvicide, feeding/residual contact, preventive (artificial diet). Conditions: 120 h, L2 larvae, 5 days incubation, read-out: activity (larval mortality, antifeedant, growth regulation). Type of data set: in vivo. As for the experimental part: Activity Against Plutella xylostella (Diamond Back Moth)
(§2) (Larvicide, Feeding/Residual Contact Activity, Preventive)
24-well microtiter plate (MTP) with artificial diet was treated with test solutions by pipetting. After drying, the MTPs were infested with L2 larvae (10-15 per well). After an incubation period of 5 days, samples were checked for larval mortality, antifeedant and growth regulation.

In data set [6] the test system is Spodoptera littoralis (Egyptian cotton leaf worm). Put plainly: Example B1: activity against Spodoptera littoralis, larvicide, feeding/residual contact, preventive (cotton leaf discs). The data set is classed as in vivo. Conditions: foliar, 72 h, L1 larvae, 3 days after treatment, read-out: activity (mortality, repellent effect, feeding behaviour, growth regulation).
From the text: Activity Against Spodoptera littoralis (Egyptian Cotton Leaf Worm)
as §2
Cotton leaf discs were placed on agar in a 24-well microtiter plate and sprayed with test solutions. After drying, the leaf discs were infested with 5 L1 larvae. The samples were checked for mortality, repellent effect, feeding behaviour, and growth regulation 3 days after treatment (DAT).

Data set [7] relates to Myzus persicae (green peach aphid). Put plainly: Example B7: activity against Myzus persicae, systemic/feeding activity, curative, mixed population (pea seedlings). The conditions noted are these: 144 h, roots in test solution, 6 days after introduction, read-out: activity (mortality, special effects on the plant). The data set is classed as in vivo.
From the text: as §1
(Systemic/Feeding Activity, Curative), Mixed Population
Roots of pea seedlings, infested with an aphid population of mixed ages, were placed directly in the test solutions. 6 days after introduction, samples were checked for mortality and special effects on the plant.

From US9701659B2, “Insecticidally active amide derivatives with sulfur-substituted phenyl or pyridine groups” (Syngenta Participations AG, priority 2014, dated 2017) come the findings set out here.

Consider `CCSc1cccnc1C(=O)/N=c1\sc(C(F)(F)F)nn1C` [P3, (N)-3-ethylsulfanyl-N-[3-methyl-5-(trifluoromethyl)-1,3,4-thiadiazol-2-ylidene]pyridine-2-carboxamide], for which the mortality at 400 ppm in data set [1] and in data set [2] was over 80% throughout. In addition, the “control of Aedes aegypti” value in data set [3] is reported as “at least 80%”. Also, the mortality (usually the share of the test organisms that died) at 12.5 ppm in data set [4] is at least 80%.

`CCSc1cc(C(F)(F)F)cnc1C(=O)/N=c1\sc(C(F)(F)F)nn1C` [P4]: the mortality at 400 ppm in data set [5], in data set [6] and in data set [1] was over 80% throughout.

With `CCS(=O)(=O)c1cc(C(F)(F)F)cnc1C(=O)/N=c1\sc(C(F)(F)F)nn1C` [P6], the mortality at 400 ppm in data set [5], in data set [6] and in data set [1] was over 80% throughout.

As for `CCS(=O)(=O)c1cc(C(F)(F)F)cnc1C(=O)/N=c1\ccc(C(F)(F)F)nn1C` [P9], in data set [2], the mortality at 400 ppm was over 80%.

As for `CCS(=O)(=O)c1cc(C(F)(F)F)cnc1C(=O)/N=c1\cc(C(F)(F)F)ccn1C`, the melting point (commonly the temperature, or range, at which the solid turns liquid) lay within 153 to 155 °C.

On to `CCS(=O)(=O)c1cc(C(F)(F)F)cnc1C(=O)/N=c1\ccc(SC(F)(F)F)cn1C`, for which the melting point was 167 to 169 °C.

For `CCS(=O)(=O)c1cc(C(F)(F)F)cnc1C(=O)/N=c1\sc(C(F)(F)C(F)(F)F)nn1C`, the melting point lay within 123 to 125 °C.

For the compound `CCS(=O)(=O)c1cc(C(F)(F)F)ccc1C(=O)/N=c1\sc(C(F)(F)F)nn1C`, the melting point was 195 to 197 °C.

Take `CCS(=O)(=O)c1cccnc1C(=O)/N=c1\sc(C(F)(F)F)nn1C` [P5, (N)-3-ethylsulfonyl-N-[3-methyl-5-(trifluoromethyl)-1,3,4-thiadiazol-2-ylidene]pyridine-2-carboxamide]: the mortality at 400 ppm in data set [2] was over 80%. For the same compound, the mortality at 24 ppm in data set [7] was at least 80%.

Regarding `CCS(=O)(=O)c1cc(C(F)(F)F)cnc1C(=O)/N=c1\scc(C(F)(F)F)n1C`, the melting point fell in the range of 163 to 165 °C.

Consider `CCS(=O)(=O)c1cc(C(F)(F)F)cnc1C(=O)/N=c1\sc(C(F)(F)F)cn1C` [P1, (N)-3-ethylsulfonyl-N-[3-methyl-5-(trifluoromethyl)thiazol-2-ylidene]-5-(trifluoromethyl)pyridine-2-carboxamide], for which the mortality at 400 ppm in data set [6] and in data set [1] was over 80% throughout.
